We go through 33 compounds from publication PMC7969873 (Cell Reports, 2021).

A word on the IC50: it is the concentration needed to halve the response being measured.

Read-outs that look alike come from different tables or passages of the source. Some results are limits rather than exact numbers.

Data set [1] deals with SARS-CoV-2. It is filed as cell-based. To be noted: 250 nM, Vero E6 cells, 48 h.
Data set [2] concerns SARS-CoV-2. As to the kind of experiment: SARS-CoV-2 infection of HEK293-ACE2 cells (IFA). It is filed as cell-based. As to conditions: 250 nM, pre-treated 24 hours, one day post-infection.
The test system of data set [3] is SARS-CoV-2. As to the kind of experiment: microbe, parasite or virus in culture. It is filed as cell-based. To be noted: for IC50: IFA, read-out: IC50, inhibition of SARS-CoV-2 infectivity.
Data set [4] relates to SARS-CoV-2. It is filed as cell-based. As to conditions: hiPSC-CMs; 250 nM.
In another data set the test system is hiPSC-CMs. As to the kind of experiment: Cardiomyocyte beating / in vitro cardiotoxicity in hiPSC-CMs. It is filed as cell-based, human. To be noted: 250 nM. Here is the method:
Thus, we used the human-induced pluripotent stem-cell-derived cardiomyocyte (hiPSC-CM) system for antiviral drug testing against SARS-CoV-2. […] Thus, this cardiomyocyte system is useful for antiviral drug testing against SARS-CoV-2. […] The inhibition of virus production by berzosertib was evaluated by quantifying the infectious virus (TCID50) in the supernatant at various time points (Figure 2B). […] Infection of cardiomyocytes with SARS-CoV-2 was confirmed by specific staining of cardiac troponin T (cTnT) and viral spike proteins (Figure 2E). Untreated SARS-CoV-2-infected cells had infection-mediated cell injury with disrupted troponin T fibers.

Data set [5] in a line: HeLa-ACE2 uninfected host cell cytotoxicity counter screen. As to conditions: human, uninfected HeLa-ACE2 cells; read-out: median cytotoxic concentration (CC50). The format is cell-based. Here is the method:
Compounds were acoustically transferred into 1,536-well μclear plates (Greiner Part. No. 789091). HeLa-ACE2 cells were maintained as described for the infection assay and seeded in the assay-ready plates at 400 cells/well in DMEM with 2% FBS and plates were incubated for 24 hours at 37°C 5% CO2. To assess cell viability, the Image-iT DEAD green reagent (Thermo Fisher) was used according to manufacturer instructions. Cells were fixed with 4% paraformaldehyde, and counterstained with DAPI.
Background: Counterscreens check selectivity or assay interference.

Data set [6] has as its system SARS-CoV-2. As to the kind of experiment: microbe, parasite or virus in culture. It is filed as cell-based. To be noted: Severe acute respiratory syndrome coronavirus 2, Calu-3 cells, read-out: IC50, SARS-CoV-2 viral titer.
In data set [7] the test system is SARS-CoV-2. Description: microbe, parasite or virus in culture. It is filed as cell-based. To be noted: Severe acute respiratory syndrome coronavirus 2, A549-ACE2, 24 h, 24 h, read-out: IC50, SARS-CoV-2 immunostaining signal.
The test system of data set [8] is SARS-CoV-2. To be noted: HeLa-ACE2 cells.
The mark [9] stands for this setting: Severe acute respiratory syndrome coronavirus 2, Vero C1008, Vero E6 cells.

With `N#C/C(=C/c1ccc(O)c(O)c1)C(=O)NCc1ccccc1` [AG-490], in the data set on SARS-CoV-2 [1], the “antiviral activity (prevention of viral CPE) in primary screen” value (“antiviral activity … in primary screen” for short) was “antiviral activity”.

Consider `O=C1NC(=O)/C(=C/c2ccc3c(c2)OC(F)(F)O3)S1` [AS-604850], for which the “antiviral activity … in primary screen” value with SARS-CoV-2 [1] was “antiviral activity”.

In the case of `CNC(=O)c1cccc(-c2ccc3c(N4CCOC[C@@H]4C)nc(N4CCOC[C@@H]4C)nc3n2)c1` [AZD2014, Vistusertib], the “antiviral activity … in primary screen” value in the data set with SARS-CoV-2 [1] is “antiviral activity”. The “anti-viral activity in secondary screen” value in the data set on SARS-CoV-2 [2] was “not exhibited potent anti-viral activity”. Besides, the IC50 in the data set on SARS-CoV-2 [3] (setting [9]) is 0.034 µM; in the data set with SARS-CoV-2 [3] (Vero E6 cells) it was below 0.025 µM.

In the case of `COc1ccc(-c2ccc3c(N4CCOC[C@@H]4C)nc(N4CCOC[C@@H]4C)nc3n2)cc1CO` [AZD8055], in the data set on SARS-CoV-2 [1], the “antiviral activity … in primary screen” value is reported as “antiviral activity”.

In the case of `CO[C@H]1CC[C@H](N2C(=O)CNc3ncc(-c4ccc(C(C)(C)O)nc4)nc32)CC1` [CC-223, Onatasertib], in the data set on SARS-CoV-2 [1], the “antiviral activity … in primary screen” value is reported as “antiviral activity”.

As to `COc1cc2ncnc(Oc3cccc(NC(=O)Nc4cc(C(C)(C)C(F)(F)F)on4)c3)c2cc1OC` [CEP-32496], in the data set with SARS-CoV-2 [1], the “antiviral activity … in primary screen” value is “antiviral activity”.

For `CS(=O)(=O)N1CCc2c(-c3cnc(N)nc3)nc(N3CCOCC3)nc21` [CH5132799], the “antiviral activity … in primary screen” value with SARS-CoV-2 [1] is given as “antiviral activity”.

In the case of `Cn1c(=O)n(-c2ccc(C(C)(C)C#N)cc2)c2c3cc(-c4cnc5ccccc5c4)ccc3ncc21` [Dactolisib], in the data set on SARS-CoV-2 [4], the “virus production (infectious virus, TCID50, in supernatant)” value is “inhibited viral production”. The IC50 in the data set on SARS-CoV-2 [3] (setting [9]) amounted to 0.111 µM. In addition, the “cardiomyocyte beating (beats per minute)” value with hiPSC-CMs (SARS-CoV-2-infected hiPSC-CMs) is “affected the cardiomyocyte functional beating”. Besides, in the data set with hiPSC-CMs (hiPSC-CMs), the in vitro cardiotoxicity result was “had cardiotoxicity”.

For `Cn1cc(C2=C(c3cn(C4CCN(Cc5ccccn5)CC4)c4ccccc34)C(=O)NC2=O)c2ccccc21` [Enzastaurin], the “antiviral activity … in primary screen” value in the data set on SARS-CoV-2 [1] is listed as “antiviral activity”.

On to `CS(=O)(=O)N1CCN(Cc2cc3nc(-c4cccc5[nH]ncc45)nc(N4CCOCC4)c3s2)CC1` [GDC-0941, Pictilisib], for which the “antiviral activity … in primary screen” value with SARS-CoV-2 [1] is recorded as “antiviral activity”.

On to `Cc1c(CN2CCN(C(=O)[C@H](C)O)CC2)sc2c(N3CCOCC3)nc(-c3cnc(N)nc3)nc12` [GDC-0980], for which the “antiviral activity … in primary screen” value in the data set on SARS-CoV-2 [1] was “antiviral activity”.

`CCS(=O)(=O)Nc1ccc2c(c1)/C(=C(/Nc1ccc(CN3CCCCC3)cc1)c1ccccc1)C(=O)N2` [Hesperadin]: the “antiviral activity … in primary screen” value in the data set with SARS-CoV-2 [1] is reported as “antiviral activity”.

As to `C[C@H](Nc1ncnc2nc[nH]c12)c1cc2cccc(Cl)c2c(=O)n1-c1ccccc1` [IPI-145], the “antiviral activity … in primary screen” value with SARS-CoV-2 [1] is “antiviral activity”.

Take `Cn1cc(-c2ccc3nnc(C(F)(F)c4ccc5ncccc5c4)n3n2)cn1` [JNJ-38877605]: the “antiviral activity … in primary screen” value in the data set with SARS-CoV-2 [1] is given as “antiviral activity”.

On to `COc1cc2nccc(Oc3ccc(NC(=O)Nc4ccc(F)cc4F)c(F)c3)c2cc1OC` [Ki8751], for which the “antiviral activity … in primary screen” value in the data set on SARS-CoV-2 [1] is reported as “antiviral activity”.

`Cc1ccc(C(=O)Nc2cccc(C(F)(F)F)c2)cc1Nc1nc(-c2cccnc2)nc2c1cnn2C` [NVP-BHG712]: the “antiviral activity … in primary screen” value in the data set on SARS-CoV-2 [1] is given as “antiviral activity”.

Take `Cc1cn(-c2cc(NC(=O)c3ccc(C)c(Nc4nccc(-c5cccnc5)n4)c3)cc(C(F)(F)F)c2)cn1` [Nilotinib]: the “antiviral activity … in primary screen” value in the data set on SARS-CoV-2 [1] is recorded as “antiviral activity”. Further, the “anti-viral activity in secondary screen” value in the data set with SARS-CoV-2 [2] is “not exhibited potent anti-viral activity”. The IC50 in the data set on SARS-CoV-2 [3] (setting [9]) was in the range of 0.05 to 0.125 µM.

With `CSc1cccc(Nc2ncc3cc(-c4c(Cl)cccc4Cl)c(=O)n(C)c3n2)c1` [PD173955], in the data set on SARS-CoV-2 [1], the “antiviral activity … in primary screen” value is given as “antiviral activity”.

For `CC(=O)Nc1nc(C)c(-c2ccc(Cl)c(S(=O)(=O)NCCO)c2)s1` [PIK-93], the “antiviral activity … in primary screen” value in the data set with SARS-CoV-2 [1] is “antiviral activity”.

For the compound `Nc1ncnc2c1c(-c1cnc3[nH]ccc3c1)nn2C1CCCC1` [PP121], the “antiviral activity … in primary screen” value with SARS-CoV-2 [1] is reported as “antiviral activity”.

`CCCCCCCCCCCCCCCCCCOP(=O)([O-])OC1CC[N+](C)(C)CC1` [Perifosine]: in the data set with SARS-CoV-2 [1], the “antiviral activity … in primary screen” value is recorded as “antiviral activity”.

Regarding `CCC(CC)COC(=O)[C@H](C)N[P@](=O)(OC[C@H]1O[C@@](C#N)(c2ccc3c(N)ncnn23)[C@H](O)[C@@H]1O)Oc1ccccc1` [Remdesivir], the CC50 at 24 h in data set [5] was above 10 µM. The IC50 with SARS-CoV-2 [6] turned out to be 0.15 µM; with SARS-CoV-2 [7] it was 0.16 µM; in the data set on SARS-CoV-2 [7] (A549-ACE2 cells, […]), 0.2 µM. Besides, in the data set with SARS-CoV-2 [8], the “median effective dose (ED50), percentage of infected cells” value was 0.124 µM.

In the case of `O=C1c2ccc(Nc3ccc(F)cc3F)cc2CCc2ccc(OC[C@H](O)CO)cc21` [Skepinone-L], in the data set on SARS-CoV-2 [1], the “antiviral activity … in primary screen” value is on record as “antiviral activity”.

As to `Nc1ccc(-c2ccc3ncc4ccc(=O)n(-c5cccc(C(F)(F)F)c5)c4c3c2)cn1` [Torin 2], in the data set with SARS-CoV-2 [1], the “antiviral activity … in primary screen” value is “antiviral activity”. The IC50 in the data set with SARS-CoV-2 [3] (Vero E6 cells) is below 0.025 µM.

With `CN1CCN(Cc2ccc(-c3cnc4[nH]cc(-c5ccc6[nH]ccc6c5)c4c3)cc2)CC1` [URMC-099], the “antiviral activity … in primary screen” value with SARS-CoV-2 [1] is on record as “antiviral activity”. Besides, in the data set with SARS-CoV-2 [3] (setting [9]), the IC50 was in the range of 0.05 to 0.125 µM.

Take `CC(C)(O)CNc1ncc(-c2ccnc(Nc3ccnc(Cl)c3)n2)c(CC2CC2)n1` [VPS34-IN1]: the “antiviral activity … in primary screen” value in the data set with SARS-CoV-2 [1] is listed as “antiviral activity”. Moreover, the IC50 in the data set on SARS-CoV-2 [3] (setting [9]) lay within 0.05 to 0.125 µM.

With `NC(=O)c1ccc(N(C(N)=O)c2c(F)cccc2F)nc1-c1ccc(F)cc1F` [VX-702], the “antiviral activity … in primary screen” value with SARS-CoV-2 [1] is “antiviral activity”.

On to `O=c1ncn2nc(Sc3ccc(F)cc3F)ccc2c1-c1c(Cl)cccc1Cl` [VX-745], for which the “antiviral activity … in primary screen” value in the data set on SARS-CoV-2 [1] was “antiviral activity”.

In the case of `CNC(=O)Nc1ccc(-c2nc(N3CC4CCC(C3)O4)c3cnn(C4CCC5(CC4)OCCO5)c3n2)cc1` [WYE-125132], the “antiviral activity … in primary screen” value with SARS-CoV-2 [1] is given as “antiviral activity”.

In the case of `Nc1ccc(C(=O)Nc2cccc(-c3nc(N4CCOCC4)c4oc5ncccc5c4n3)c2)cn1` [YM201636], in the data set on SARS-CoV-2 [1], the “antiviral activity … in primary screen” value is listed as “antiviral activity”.

`COc1cc2c(Nc3ccc(NC(=O)c4ccccc4)cc3)ncnc2cc1OCCCN1CCOCC1` [ZM 447439]: the “antiviral activity … in primary screen” value with SARS-CoV-2 [1] was “antiviral activity”.

Take `FC(F)c1nc2ccccc2n1-c1nc(N2CCOCC2)nc(N2CCOCC2)n1` [ZSTK474]: the “antiviral activity … in primary screen” value with SARS-CoV-2 [1] is listed as “antiviral activity”.

Take IFN-α: the “blocking of SARS-CoV-2 infection (IFA)” value in the data set on SARS-CoV-2 [3] (Vero E6 cells, 48 hpi, hydroxychloroquine and EIDD-2801 10 μM) is listed as “effectively blocked”.
